Activity calls are given as the source filed them. The rule behind the calls is not given here.
Assays:
[1] = target: Phosphatidylinositol 4,5-bisphosphate 3-kinase catalytic subunit gamma isoform (Homo sapiens, UniProt P48736); assay: Inhibition of recombinant human PI3Kgamma using PIP2 as substrate after 35 to 40 mins by HTRF assay
[2] = target: Phosphatidylinositol 4,5-bisphosphate 3-kinase catalytic subunit alpha isoform (Homo sapiens, UniProt P42336); assay: Inhibition of human PI3Kalpha using phosphatidyl inositol as substrate after 3 hrs by Kinase-Glo Plus reagent-based luminescence assay
Sequence of Phosphatidylinositol 4,5-bisphosphate 3-kinase catalytic subunit alpha isoform (P42336 whole entry, canonical isoform): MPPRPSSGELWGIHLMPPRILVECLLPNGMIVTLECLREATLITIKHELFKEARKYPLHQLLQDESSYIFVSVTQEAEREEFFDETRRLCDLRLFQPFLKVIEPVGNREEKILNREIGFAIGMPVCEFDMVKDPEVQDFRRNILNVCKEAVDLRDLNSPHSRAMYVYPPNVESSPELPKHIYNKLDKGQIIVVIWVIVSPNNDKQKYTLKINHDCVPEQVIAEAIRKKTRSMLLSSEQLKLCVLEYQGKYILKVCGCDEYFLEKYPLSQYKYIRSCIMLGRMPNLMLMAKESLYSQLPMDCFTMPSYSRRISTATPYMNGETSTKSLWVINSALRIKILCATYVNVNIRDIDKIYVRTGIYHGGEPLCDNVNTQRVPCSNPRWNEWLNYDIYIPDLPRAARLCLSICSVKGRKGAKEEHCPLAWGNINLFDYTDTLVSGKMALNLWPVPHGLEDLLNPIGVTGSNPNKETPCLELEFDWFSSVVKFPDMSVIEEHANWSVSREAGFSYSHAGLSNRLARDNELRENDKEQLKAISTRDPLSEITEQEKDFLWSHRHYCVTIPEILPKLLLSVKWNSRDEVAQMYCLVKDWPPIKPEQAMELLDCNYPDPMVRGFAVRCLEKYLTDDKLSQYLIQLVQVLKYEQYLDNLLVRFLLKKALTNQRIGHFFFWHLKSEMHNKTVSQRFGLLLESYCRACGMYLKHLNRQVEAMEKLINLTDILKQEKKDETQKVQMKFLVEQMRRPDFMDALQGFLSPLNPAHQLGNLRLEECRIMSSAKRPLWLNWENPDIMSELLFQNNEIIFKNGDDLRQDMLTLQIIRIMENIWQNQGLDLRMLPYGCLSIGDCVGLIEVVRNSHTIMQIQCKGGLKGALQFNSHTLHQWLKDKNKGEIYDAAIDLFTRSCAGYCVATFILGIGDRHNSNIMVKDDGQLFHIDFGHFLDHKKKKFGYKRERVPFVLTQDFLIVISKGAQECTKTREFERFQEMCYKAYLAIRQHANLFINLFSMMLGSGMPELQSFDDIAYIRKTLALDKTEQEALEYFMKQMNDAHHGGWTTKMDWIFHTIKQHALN

[3] = system: B-cell; assay: Antiproliferative activity against anti-IgM antibody-stimulated BALB/c mouse B cells after 2 days by Alamar Blue reagent-based assay; conditions: 48 h
[4] = target: T1, Phosphatidylinositol 4,5-bisphosphate 3-kinase catalytic subunit delta isoform (Homo sapiens, UniProt O00329); assay: Inhibition of recombinant human PI3Kdelta using PIP2 as substrate after 35 to 40 mins by HTRF assay
T1 sequence (O00329 whole entry): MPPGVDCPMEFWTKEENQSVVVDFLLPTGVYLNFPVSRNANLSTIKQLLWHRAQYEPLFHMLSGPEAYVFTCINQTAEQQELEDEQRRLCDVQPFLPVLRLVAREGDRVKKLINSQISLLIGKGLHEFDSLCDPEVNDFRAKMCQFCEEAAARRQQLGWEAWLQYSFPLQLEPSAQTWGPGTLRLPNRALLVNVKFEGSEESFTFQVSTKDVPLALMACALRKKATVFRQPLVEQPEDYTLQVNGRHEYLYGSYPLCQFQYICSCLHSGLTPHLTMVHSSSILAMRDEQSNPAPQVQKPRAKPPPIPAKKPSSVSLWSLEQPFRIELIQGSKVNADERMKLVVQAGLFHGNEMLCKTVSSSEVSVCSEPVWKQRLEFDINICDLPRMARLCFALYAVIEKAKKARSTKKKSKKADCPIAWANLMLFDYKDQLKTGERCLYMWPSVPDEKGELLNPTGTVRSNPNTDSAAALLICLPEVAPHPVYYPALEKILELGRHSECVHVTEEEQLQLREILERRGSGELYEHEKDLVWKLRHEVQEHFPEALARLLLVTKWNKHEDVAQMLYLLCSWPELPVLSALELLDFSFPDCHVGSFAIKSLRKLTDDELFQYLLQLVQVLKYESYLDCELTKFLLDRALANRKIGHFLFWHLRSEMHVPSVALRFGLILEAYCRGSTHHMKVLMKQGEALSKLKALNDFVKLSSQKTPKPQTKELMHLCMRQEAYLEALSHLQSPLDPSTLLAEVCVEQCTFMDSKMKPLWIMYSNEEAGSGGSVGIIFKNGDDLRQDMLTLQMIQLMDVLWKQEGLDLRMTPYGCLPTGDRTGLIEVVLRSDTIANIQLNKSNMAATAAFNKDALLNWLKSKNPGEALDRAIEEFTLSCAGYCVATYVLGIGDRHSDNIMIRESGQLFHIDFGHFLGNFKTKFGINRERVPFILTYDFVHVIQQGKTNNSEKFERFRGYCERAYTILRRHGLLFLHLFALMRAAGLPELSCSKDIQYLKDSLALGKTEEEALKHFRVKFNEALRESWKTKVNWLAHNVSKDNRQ

[5] = target: Phosphatidylinositol 4,5-bisphosphate 3-kinase catalytic subunit beta isoform (Homo sapiens, UniProt P42338); assay: Inhibition of recombinant human PI3Kbeta using PIP2 as substrate after 35 to 40 mins by HTRF assay
Sequence of Phosphatidylinositol 4,5-bisphosphate 3-kinase catalytic subunit beta isoform (P42338 whole entry, canonical isoform): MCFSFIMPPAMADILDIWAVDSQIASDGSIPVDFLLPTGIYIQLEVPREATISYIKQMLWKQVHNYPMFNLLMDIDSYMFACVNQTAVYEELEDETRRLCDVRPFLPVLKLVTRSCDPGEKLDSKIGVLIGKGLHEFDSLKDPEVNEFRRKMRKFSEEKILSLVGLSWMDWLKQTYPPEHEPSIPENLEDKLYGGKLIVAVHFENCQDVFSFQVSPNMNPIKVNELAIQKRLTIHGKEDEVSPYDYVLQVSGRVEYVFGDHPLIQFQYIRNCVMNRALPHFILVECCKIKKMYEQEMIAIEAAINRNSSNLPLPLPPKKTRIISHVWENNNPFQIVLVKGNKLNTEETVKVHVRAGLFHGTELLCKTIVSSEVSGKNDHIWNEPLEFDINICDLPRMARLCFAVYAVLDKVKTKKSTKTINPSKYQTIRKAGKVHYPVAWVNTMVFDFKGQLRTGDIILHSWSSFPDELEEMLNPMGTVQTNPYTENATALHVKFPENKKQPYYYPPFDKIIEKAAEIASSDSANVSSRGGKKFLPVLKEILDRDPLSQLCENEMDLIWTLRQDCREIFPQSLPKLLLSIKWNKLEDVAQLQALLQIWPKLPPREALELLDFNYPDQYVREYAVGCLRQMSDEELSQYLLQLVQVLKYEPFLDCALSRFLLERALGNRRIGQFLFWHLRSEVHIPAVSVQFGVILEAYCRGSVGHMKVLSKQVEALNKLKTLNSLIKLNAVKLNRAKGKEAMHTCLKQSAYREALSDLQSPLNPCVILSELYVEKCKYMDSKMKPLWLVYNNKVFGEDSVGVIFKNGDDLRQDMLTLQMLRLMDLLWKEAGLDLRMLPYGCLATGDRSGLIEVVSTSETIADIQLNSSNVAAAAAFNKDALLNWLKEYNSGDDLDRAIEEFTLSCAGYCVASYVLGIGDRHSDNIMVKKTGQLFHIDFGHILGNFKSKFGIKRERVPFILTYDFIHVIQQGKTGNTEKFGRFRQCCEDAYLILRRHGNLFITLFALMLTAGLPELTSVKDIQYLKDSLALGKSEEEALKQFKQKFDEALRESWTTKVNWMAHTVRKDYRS

[6] = target: T2, Phosphatidylinositol 4,5-bisphosphate 3-kinase catalytic subunit delta isoform (Homo sapiens) (UniProt O00329); assay: Inhibition of recombinant human PI3Kdelta at 0.1 uM using PIP2 as substrate after 35 to 40 mins by HTRF assay relative to control
T2 sequence (whole entry): T1 sequence (O00329 whole entry)

[7] = target: Cytochrome P450 3A4 (Homo sapiens, UniProt P08684); assay: Inhibition of CYP3A4 in human liver microsomes at 5 uM using midazolam as substrate after 20 mins by LC-MS/MS analysis; type: ADME
Sequence of Cytochrome P450 3A4 (P08684 whole entry): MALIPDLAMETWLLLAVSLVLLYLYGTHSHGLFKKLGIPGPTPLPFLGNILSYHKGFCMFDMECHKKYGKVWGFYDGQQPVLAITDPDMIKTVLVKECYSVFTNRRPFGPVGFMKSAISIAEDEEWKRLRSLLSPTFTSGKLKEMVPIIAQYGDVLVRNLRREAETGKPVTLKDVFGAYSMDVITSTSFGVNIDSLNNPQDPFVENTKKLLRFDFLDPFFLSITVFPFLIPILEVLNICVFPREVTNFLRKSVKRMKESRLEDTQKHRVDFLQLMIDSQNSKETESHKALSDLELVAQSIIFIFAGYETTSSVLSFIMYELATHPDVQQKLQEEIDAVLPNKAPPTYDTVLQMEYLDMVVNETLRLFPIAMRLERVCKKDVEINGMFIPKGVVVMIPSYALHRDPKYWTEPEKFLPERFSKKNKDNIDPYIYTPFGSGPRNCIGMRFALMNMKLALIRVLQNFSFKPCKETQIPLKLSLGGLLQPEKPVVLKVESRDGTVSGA

[8] = system: Mus musculus; assay: Inhibition of TNP-Ficoll induced antibody production in BALB/c mouse at 2 mg/kg, po qd measured on day 4 by ELISA; type: functional, organism-based
[9] = target: T3, Cytochrome P450 1A2 (Homo sapiens, UniProt P05177); assay: Inhibition of CYP1A2 in human liver microsomes at 5 uM using phenacetin as substrate after 20 mins by LC-MS/MS analysis; type: ADME
T3 sequence (P05177 whole entry): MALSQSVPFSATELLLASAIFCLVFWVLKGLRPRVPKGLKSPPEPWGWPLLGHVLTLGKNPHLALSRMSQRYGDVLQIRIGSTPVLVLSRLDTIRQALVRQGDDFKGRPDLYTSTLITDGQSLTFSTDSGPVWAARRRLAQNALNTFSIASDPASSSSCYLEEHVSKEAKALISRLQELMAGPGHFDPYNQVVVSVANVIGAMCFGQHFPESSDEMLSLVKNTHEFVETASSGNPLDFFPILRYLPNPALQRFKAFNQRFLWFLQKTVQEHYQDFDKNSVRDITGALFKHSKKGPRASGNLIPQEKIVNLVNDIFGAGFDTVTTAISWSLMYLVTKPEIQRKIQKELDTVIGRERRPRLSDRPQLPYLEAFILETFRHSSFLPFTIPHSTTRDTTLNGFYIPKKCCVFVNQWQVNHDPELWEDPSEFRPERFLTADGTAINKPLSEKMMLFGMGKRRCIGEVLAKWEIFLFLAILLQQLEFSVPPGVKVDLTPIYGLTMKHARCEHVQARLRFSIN

[10] = target: T4, Cytochrome P450 2C8 (Homo sapiens, UniProt P10632); assay: Inhibition of CYP2C8 in human liver microsomes at 5 uM using amodiaquine as substrate after 20 mins by LC-MS/MS analysis; type: ADME
T4 sequence (P10632 whole entry): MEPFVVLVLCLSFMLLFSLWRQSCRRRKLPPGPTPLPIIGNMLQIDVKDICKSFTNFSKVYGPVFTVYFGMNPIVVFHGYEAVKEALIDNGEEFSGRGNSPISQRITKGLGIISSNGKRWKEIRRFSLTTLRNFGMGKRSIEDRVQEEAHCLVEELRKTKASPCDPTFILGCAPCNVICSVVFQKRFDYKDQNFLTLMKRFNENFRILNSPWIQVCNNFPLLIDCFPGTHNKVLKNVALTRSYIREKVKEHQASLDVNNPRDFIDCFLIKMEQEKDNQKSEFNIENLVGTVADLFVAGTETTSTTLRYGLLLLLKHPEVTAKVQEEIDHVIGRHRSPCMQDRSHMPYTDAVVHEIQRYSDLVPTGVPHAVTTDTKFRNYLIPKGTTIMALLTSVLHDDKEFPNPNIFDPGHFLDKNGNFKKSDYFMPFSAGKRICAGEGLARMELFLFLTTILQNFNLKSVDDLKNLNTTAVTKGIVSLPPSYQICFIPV

[11] = Half life in BALB/c mouse at 1 mg/kg, iv or 3 mg/kg, po by LC-MS/MS analysis; type: ADME, organism-based; conditions: in vivo
[12] = Total clearance in BALB/c mouse at 1 mg/kg, iv or 3 mg/kg, po by LC-MS/MS analysis; type: ADME, organism-based; conditions: in vivo
[13] = Intrinsic clearance in CD1 mouse liver microsomes at 0.2 uM up to 45 mins in presence of NADPH by LC-MS/MS analysis; type: ADME, Microsome; conditions: read-out: CLH
[14] = target: Cytochrome P450 2D6 (Homo sapiens, UniProt P10635); assay: Inhibition of CYP2D6 in human liver microsomes at 5 uM using dextromethorphan as substrate after 20 mins by LC-MS/MS analysis; type: ADME
Sequence of Cytochrome P450 2D6 (P10635 whole entry): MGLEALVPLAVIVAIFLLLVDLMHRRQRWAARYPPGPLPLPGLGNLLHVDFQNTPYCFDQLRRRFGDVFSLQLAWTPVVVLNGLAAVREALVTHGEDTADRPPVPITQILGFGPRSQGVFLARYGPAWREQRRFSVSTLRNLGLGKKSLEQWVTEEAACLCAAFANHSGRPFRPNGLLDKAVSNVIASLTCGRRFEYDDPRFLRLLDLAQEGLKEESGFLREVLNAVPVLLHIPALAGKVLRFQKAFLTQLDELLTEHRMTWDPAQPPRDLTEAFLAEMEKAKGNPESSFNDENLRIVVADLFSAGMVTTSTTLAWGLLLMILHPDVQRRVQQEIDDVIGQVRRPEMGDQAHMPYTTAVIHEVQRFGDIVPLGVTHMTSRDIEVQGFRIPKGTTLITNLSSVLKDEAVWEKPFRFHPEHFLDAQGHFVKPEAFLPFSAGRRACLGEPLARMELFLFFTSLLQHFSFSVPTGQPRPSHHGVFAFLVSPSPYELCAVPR

[15] = Tmax in BALB/c mouse at 1 mg/kg, iv or 3 mg/kg, po by LC-MS/MS analysis; type: ADME, organism-based; conditions: in vivo
[16] = Oral bioavailability in BALB/c mouse at 3 mg/kg by LC-MS/MS analysis; type: ADME, organism-based; conditions: in vivo
[17] = system: Mus musculus; assay: Inhibition of TNP-Ficoll induced antibody production in po dosed BALB/c mouse administered twice daily measured on day 4 by ELISA; type: functional, organism-based
[18] = Permeability of the compound at 50 uM after 2 hrs by PAMPA; type: ADME; conditions: read-out: permeability
[19] = Aqueous solubility of compound at pH 6.8 Japanese Pharmacopoeia 2nd fluid for disintegration test at 130 uM after 20 hrs by liquid chromatography method; type: physicochemical
[20] = Volume of distribution at steady state in BALB/c mouse at 1 mg/kg, iv or 3 mg/kg, po by LC-MS/MS analysis; type: ADME, organism-based; conditions: in vivo, read-out: Vdss
[21] = target: Cytochrome P450 2C19 (Homo sapiens, UniProt P33261); assay: Inhibition of CYP2C19 in human liver microsomes at 5 uM using S-mephenytoin as substrate after 20 mins by LC-MS/MS analysis; type: ADME
[22] = AUC (24 hrs) in BALB/c mouse at 3 mg/kg, po by LC-MS/MS analysis; type: ADME, organism-based; set-up: dose 3 mg/kg, time < 24 hr, route oral; conditions: in vivo
[23] = Cmax in BALB/c mouse at 1 mg/kg, iv or 3 mg/kg, po by LC-MS/MS analysis; type: ADME, organism-based; conditions: in vivo
[24] = target: Cytochrome P450 2C9 (Homo sapiens, UniProt P11712); assay: Inhibition of CYP2C9 in human liver microsomes at 5 uM using diclofenac as substrate after 20 mins by LC-MS/MS analysis; type: ADME
Sequence of Cytochrome P450 2C9 (P11712 whole entry): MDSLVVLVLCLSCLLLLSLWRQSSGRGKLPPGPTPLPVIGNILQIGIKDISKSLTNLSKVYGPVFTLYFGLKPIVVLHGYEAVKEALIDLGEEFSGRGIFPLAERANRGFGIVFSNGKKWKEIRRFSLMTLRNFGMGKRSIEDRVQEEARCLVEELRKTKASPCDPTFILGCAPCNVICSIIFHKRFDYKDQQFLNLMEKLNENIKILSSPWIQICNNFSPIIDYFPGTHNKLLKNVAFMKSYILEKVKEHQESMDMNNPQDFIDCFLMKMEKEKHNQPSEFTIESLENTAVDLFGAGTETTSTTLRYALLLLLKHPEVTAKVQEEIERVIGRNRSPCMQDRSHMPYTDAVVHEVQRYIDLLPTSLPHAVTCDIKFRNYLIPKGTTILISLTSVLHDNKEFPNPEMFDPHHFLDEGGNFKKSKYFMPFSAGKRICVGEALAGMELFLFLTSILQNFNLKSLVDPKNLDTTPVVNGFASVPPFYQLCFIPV

[25] = Unbound fraction in mouse plasma at 2 uM incubated for 6 hrs by LC-MS/MS analysis; type: ADME, cell-free

Sequence of Phosphatidylinositol 4,5-bisphosphate 3-kinase catalytic subunit gamma isoform (P48736 whole entry, canonical isoform): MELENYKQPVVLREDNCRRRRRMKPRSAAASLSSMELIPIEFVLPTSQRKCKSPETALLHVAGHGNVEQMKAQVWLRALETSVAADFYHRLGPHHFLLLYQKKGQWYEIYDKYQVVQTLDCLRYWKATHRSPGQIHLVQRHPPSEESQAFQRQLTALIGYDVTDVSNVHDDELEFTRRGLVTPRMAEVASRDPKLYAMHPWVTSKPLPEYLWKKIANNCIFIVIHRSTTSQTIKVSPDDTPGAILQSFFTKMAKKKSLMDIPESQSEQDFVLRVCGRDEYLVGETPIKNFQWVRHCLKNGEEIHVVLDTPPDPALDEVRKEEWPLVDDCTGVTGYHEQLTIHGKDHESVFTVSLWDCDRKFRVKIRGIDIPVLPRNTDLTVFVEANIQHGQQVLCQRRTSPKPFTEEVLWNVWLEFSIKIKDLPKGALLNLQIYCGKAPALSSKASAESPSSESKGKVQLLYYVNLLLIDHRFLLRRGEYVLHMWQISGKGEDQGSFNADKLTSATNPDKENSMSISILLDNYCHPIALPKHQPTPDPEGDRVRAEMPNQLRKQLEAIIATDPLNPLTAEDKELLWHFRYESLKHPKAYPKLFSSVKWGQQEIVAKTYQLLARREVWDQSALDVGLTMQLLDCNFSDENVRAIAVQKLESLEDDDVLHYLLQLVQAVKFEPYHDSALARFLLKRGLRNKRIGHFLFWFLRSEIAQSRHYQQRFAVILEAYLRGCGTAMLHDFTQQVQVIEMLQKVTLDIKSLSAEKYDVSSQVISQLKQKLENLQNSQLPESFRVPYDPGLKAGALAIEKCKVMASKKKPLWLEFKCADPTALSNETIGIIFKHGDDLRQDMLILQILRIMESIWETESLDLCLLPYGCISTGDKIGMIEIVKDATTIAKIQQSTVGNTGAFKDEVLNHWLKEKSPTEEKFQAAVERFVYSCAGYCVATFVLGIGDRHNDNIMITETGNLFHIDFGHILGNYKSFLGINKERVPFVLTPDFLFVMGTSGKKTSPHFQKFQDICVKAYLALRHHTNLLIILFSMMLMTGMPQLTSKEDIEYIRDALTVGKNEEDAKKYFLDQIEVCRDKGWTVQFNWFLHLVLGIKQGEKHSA

Structure (SMILES)	IC50 [1] [nM]	IC50 [2] [nM]	IC50 [3] [nM]	IC50 [4] [nM]	IC50 [5] [nM]	further results
COc1ncc(N2CCc3ncnc(-c4ccnc(NC5CCOCC5)c4)c3C2)cc1C	> 10000	5800	7.1	11	5400	
COc1ncc(N2CCc3ncnc(-c4cnn(CC5CCOCC5)c4)c3C2)cc1C		4900		110		
COc1ncc(N2CCc3ncnc(-c4ccc(NCC5CCOCC5)nc4)c3C2)cc1C		6100		42		
COc1ncc(N2CCc3ncnc(Nc4cccc(C(=O)N5CCOCC5)c4)c3C2)cc1C				47		
COc1ncc(N2CCc3ncnc(-c4ccnc(N[C@H]5CC[C@H](O)CC5)c4)c3C2)cc1C		7300	24	27		
COc1ncc(N2CCc3ncnc(Nc4ccccc4)c3C2)cc1C						inhibition [6]: 14%
COc1ncc(N2CCc3ncnc(-c4ccnc(NC5CCNCC5)c4)c3C2)cc1C	> 10000	> 10000	24	25	> 10000	
COc1ncc(N2CCc3ncnc(-c4ccnc(NC5CCN(C)CC5)c4)c3C2)cc1C	> 10000	> 10000	3.2	7	> 10000	inhibition (INH) [7]: Not Active; inhibition [8]: Active; inhibition (INH) [9]: Not Active; inhibition (INH) [10]: Not Active; half-life [11]: 4 h; clearance [12]: 21.9 mL/min/kg; CLint scaled at 0.2 µM [13]: 81 mL/min/kg; inhibition (INH) [14]: Not Active; Tmax [15]: 6 h; bioavailability [16]: 97%; inhibition [17]: Dose-dependent effect; Papp at 2 h, 50 µM [18]: 9.3 ×10⁻⁶ cm/s; solubility at 20 h, 130 µM [19]: > 100 µM; Vd [20]: 7.17 L/kg; inhibition (INH) [21]: Not Active; AUC at 24 h [22]: 2210 ng·h/mL; Cmax [23]: 160 ng/mL; inhibition (INH) [24]: Not Active; fraction unbound at 6 h, 2 µM [25]: 0.3
COCC(=O)N1CCC(Nc2cc(-c3ncnc4c3CN(c3cnc(OC)c(C)c3)CC4)ccn2)CC1	> 10000	9800	7.9	9.2	> 10000	CLint scaled at 0.2 µM [13]: 580 mL/min/kg
COc1ncc(N2CCc3ncnc(-c4ccnc(NCC5CCOCC5)c4)c3C2)cc1C		7500	17	28	8900	
COc1ncc(N2CCc3ncnc(-c4ccnc(OC5CCN(C)CC5)c4)c3C2)cc1C				45		

From ChEMBL document CHEMBL4368932 (Bioorg Med Chem, 2019)
